# Assay results as given in patent US7714014B2, “Targeting GLI proteins in human cancer by small molecules” (The Regents of the University of California, priority 2005, dated 2010).
# Experiments:
# [1] = system: NSCLC cell lines H460, H838, H1975, H1650, and H1703; experiment: Cell survival assay (crystal violet); assay type: cell-based, human; conditions: for cell killing: data not shown
# Description: (§1) Typically, the small molecule compounds of the present invention were dissolved in DMSO at a concentration of 30 mM. The small molecule compounds were then tested under cell culture conditions at different concentrations ranging from 0, 10, 30, 50, to 100 uM. To determine cell survival after treatment, the cells were incubated with the small molecule compounds in 6-well plates for about 3 days. After removal of the cell culture medium, 1-ml of 0.5% crystal violet solution (prepared in 20% ethanol and 20% methanol) was added to stain the cells for 5 min. Then the crystal violet solution was rinsed clean with tap water. Cell survival was estimated based on the density of crystal stained plates.
# [2] = system: colon cancer cell line HT29; experiment: Cell survival assay (crystal violet); assay type: cell-based, human; conditions: FN1-8 even at higher doses (50 μM), data not shown
# Description: as §1
# [3] = system: human gastric cancer cell lines NUGC3, MNK28, and AGS; experiment: Cell survival assay (crystal violet); assay type: cell-based; conditions: for cell killing: 50 μM
# Description: as §1
# The cell-based cytotoxicity assay described herein was used to determine the effect of small molecule compounds FN1-5 and FN1-8 in the human gastric cancer cell lines NUGC3, MNK28, and AGS. Viability of these cells was analyzed after treatment with 10, 30 and 50 μM FN1-5 or FN1-8.
# [4] = system: hedgehog pathway in HT29 cells; experiment: Semi-quantitative RT-PCR of Hedgehog pathway genes; assay type: cell-based, human; conditions: data not shown
# Description: Total RNA from cell lines or tissue samples was isolated using Qiagen RNeasy Mini Kit (Valencia, Calif.). RT-PCR was performed in GeneAmp PCR system 2700 (Applied Biosystems, Foster City, Calif.) using One-step RT-PCR Kit from Invitrogen Life Technologies (Carlsbad, Calif.). Primers for RT-PCR were obtained from Operon Technologies Inc. (Alameda, Calif.). Primer sequences for amplifying different genes in Hedgehog and Wnt signaling pathways are listed in the table below (Table 1; F, forward primer; R, reverse primer). The expected size of the PCR product is indicated for each primer pair. GAPDH was used as internal control.
# Normal renal cells = experiment: Apoptosis analysis (Annexin V FITC, flow cytometry); assay type: cell-based, human
# Description: (§2) Apoptosis was analyzed by using an Annexin V FITC Apoptosis Detection Kit (Biosource, Camarillo, Calif.), according to the manufacturer's protocol. After treatment with different small molecule compounds at various concentrations for about 3 days, cells were harvested by trypsinization, stained and immediately analyzed by flow cytometry (FACScan; Decton Dickinson, Franklin Lake, N.J.). Early apoptotic cells with exposed phosphatidylserine but intact cell membranes will bind to Annexin V-FITC, but not propidium iodide (PI). Cells in necrotic or late apoptotic stages will be labeled with both Annexin V-FITC and PI. “% apoptotic cells” or “% apoptosis” refers to the combined early and late apoptotic cells.
# In addition, apoptosis induction after the treatment of different doses of FN1-5 (30 and 50 μM) or FN1-8 (10, 30, and 50 μM) in normal human renal cells was examined by flow cytometry.
# [5] = system: mesothelioma cell lines H290 and 211H; experiment: Cell survival assay (crystal violet); assay type: cell-based, human; conditions: 30 μM, 3 days
# Description: as §1
# (§3) Cell killing was also tested using mesothelioma cell lines H290, 211H, MS1 and REN and different doses of the small molecule compounds FN1-5 and FN1-8. Cells were plated in 6-well plates and incubated with 1, 10, and 30 μM of each compound for 3 days, as described herein. […] (data not shown).
# [6] = system: mesothelioma cell lines MS-1 and REN; experiment: Cell survival assay (crystal violet); assay type: cell-based, human; conditions: 1, 10, and 30 μM, 3 days
# Description: as §1, §3
# [7] = system: human prostate cancer cell line LnCAP; experiment: Cell survival assay (crystal violet); assay type: cell-based; conditions: FN1-8 at 50 μM, FN1-5 30 and 50 μM
# Description: as §1
# The cell-based cytotoxicity assay described herein was used to determine the effect of small molecule compounds FN1-5 and FN1-8 on the human prostate cancer cell line LnCAP. Viability of LnCAP cells was analyzed after treatment with 30 and 50 μM FN1-5 and after treatment with 10, 30, and 50 μM FN1-8.
# LOX (melanoma) = experiment: Apoptosis analysis (Annexin V FITC, flow cytometry); assay type: cell-based, human; conditions: 3 days
# Description: as §2
# The cell killing of LOX cells by treatment with small molecule compounds FN1-5 and FN1-8 was analyzed in greater detail using various concentrations of these two compounds and flow cytometry. […] (Tables 2 and 3).
# [8] = system: normal human muscle cells; experiment: Cell survival assay (crystal violet); assay type: cell-based; conditions: 1, 10, 30, and 50 μM, 3 days
# Description: as §1
# The cell killing effect of small molecule compounds FN1-8, FN1-7, and FN1-5 at different doses was examined in normal human muscle cells. […] Normal muscle cells were plated in 6-well plates and incubated with 1, 10, 30, and 50 μM of each compound for 3 days, in the same manner as described herein for similar other experiments. […] Both FN1-5 and FN1-8 seem to be specific in killing cancer cells.
SMILES,cell killing [1],cell killing [2],cell killing [3],modulation of hedgehog pathway (RT-PCR) [4],% of apoptotic cells (Normal renal cells; 30 μM) [%],% of apoptotic cells (Normal renal cells; 50 μM) [%],cell killing [5],cell killing [6],cell killing [7],% of apoptotic cells (LOX (melanoma); 10 μM) [%],% of apoptotic cells (LOX (melanoma); 30 μM) [%],% of apoptotic cells (LOX (melanoma); 50 μM) [%],cell killing effect in normal cells [8],cell killing potency compared with FN1-5 ([1]; same concentrations),cell killing potency compared with FN1-5 [3],% of apoptotic cells (Normal renal cells; 10 μM) [%]
"O=C(NCCCCCO)C1C(c2ccccc2)=NN(c2ccccc2)C1c1ccccc1 (centres unmarked) [FN1-5, N-(5-Hydroxypentyl)-1,3,5-triphenyl-4,5-dihydro-pyrazole-4-carboxyamide]",dramatic cell killing,dramatic cell killing,dramatic cell killing,no noticeable changes,5.6,6.6,Dramatic cell killing,no noticeable effect,much lesser cell killing effect,14.0,16.6,58.1,No noticeable cell killing effect,,,
"O=C(NCCc1ccc(O)cc1)C1C(c2ccccc2)=NN(c2ccccc2)C1c1ccccc1 (centres unmarked) [FN1-8, N-(2-(4-Hydroxyphenyl)ethyl)-1,3,5-triphenyl-4,5-dihydro-pyrazole-4-carboxyamide]",dramatic cell killing,no cell killing,dramatic cell killing,no noticeable changes,4.1,6.2,Dramatic cell killing,no noticeable effect,dramatic cell killing,16.7,19.0,78.9,No noticeable cell killing effect,more potent than FN1-5,more potent,3.1
